Test results: patent US20100311674A1, “PHARMACEUTICAL COMPOSITIONS WITH A MECHANISM OF MULTI-TARGET RECEPTOR RETROACTION FOR TREATING DEPRESSION” (Yu-Fen Chi, priority 2007, published 2010)

Assays:
ICR mice = assay: Mouse tail-hanging experiment (Experiment 9); format: in vivo
Description: 9.1 Experiment pharmaceuticals: The pharmaceutical of Embodiment 5 is provided by Beijing Wonner Biotech. […] Above-mentioned pharmaceuticals are prepared with physiological saline for feeding into the stomach. 9.2 Experimental animals: ICR mice, male, 20.0±1 g of body weight, secondary, are provided by the Experimental Animal Science Department of Capital Medical University, Beijing. The quality certificate number of mice is SOCK (DING) 2006-2008. […] The pharmaceuticals are fed into mouse's stomach once every day. After 1 hour of the last administration of drug on the eighth day, the mouse's tail (1 cm to the tail end) is taped on the horizontal support in an opened box, and the mouse represents the reversed hung status. The mouse head is away from the bottom of the opened box for about 10 cm, and the mouse is hung up for 6 minutes. The time of non-movement of the mouse for the last 5 minutes is recorded. 9.5 Statistic calculation: The experimental data are represented as X±SD, and the experimental result is calculated as one-way ANOVA by SPSS 11.5 statistic software.

[1] = test system: rat olfactory bulb lesion model; assay: Open field activity experiment of the rat olfactory bulb lesion model (Experiment 7); format: in vivo; conditions: 2 mg/kg/d into the stomach, 24 days; within 3 minutes
Description: Olfactory bulb lesion model: Health Wistar male rats, secondary, 330±20 g of body weight, are purchased from Beijing Vital River Experimental Animal Technology Ltd. Co. (The quality certificate number: SCXK (JING) 2002-2003).
(§1) The above pharmaceuticals are prepared with 0.5% of sodium carboxymethylcellulose (CMC-Na) for feeding into the stomach. Benzylpenicillin sodium for injection is the product of North China Pharmaceutical Huasheng Co. Ltd. (Lot: S0511204), and norepinephrine (NE) and 5-hydrotryptamine (5-HT) standards are the products of Sigma Co. Other reagents are all marketed.
7.4.1 Group division and administration of drug: The rats are grouped randomly into 6 groups. 1. […]
7.5.1 Open field activity experiment: The open field activity box (1 m×1 m×0.4 m) is constructed by the light blue plywood and the aluminum alloy frame. […] The rat is placed in the center of the central grids, and the rat's cross-grid number (the number of crossing into the neighboring gird more than 3 claws) and rat's standing number (two forelimbs leaving the ground for more than 1 cm) are calculated/observed within 3 minutes.
7.6 Statistic calculation: The experimental data are represented as X+SD, and the experimental result is calculated as ANOVA by SPSS 11.5 statistic software.

[2] = test system: unpredictable long-term stimulus model; assay: Volume test of drinking sucrose, unpredictable long-term stimulus model (Experiment 8); format: in vivo, rat; conditions: 2 mg/kg/d into the stomach, 24 days; 1% sucrose for 1 hour
Description: Unpredictable long-term stimulus model: Health Wistar male rats, secondary, 240˜270 g of body weight, are purchased from Beijing Vital River Experimental Animal Technology Ltd. Co. (The quality certificate number: SOCK (JING) 2002-2003).
as §1
8.4.1 Group division and administration of drug: The rats are grouped randomly into 6 groups. 1. False therapy group; 2. model group (control); 3. high dose of Embodiment 4 (60 mg/kg/d); 4. middle dose of Embodiment 4 (30 mg/kg/d); 5. low dose of Embodiment 4 (15 mg/kg/d); and 6. […]
8.5.5 Volume test of drinking sucrose: The sucrose-intake volume of the rats are compared. […] The drinking volumes are determined before the stimulus and after 3 weeks of the stimulus. […] The differences between the bottle weight before and after the rat drinking sucrose for 1 hour are measured and recorded, and the sucrose-drinking volume for each time is calculated. […]
8.6 Statistic calculation: The experimental data are represented as […], and the experimental result is calculated as ANOVA by SPSS 11.5 statistic software.

With `Fc1ccc([C@@H]2CCNC[C@H]2COc2ccc3c(c2)OCO3)cc1` [Paroxetine] the Time of non-movement (ICR mice; 3 mg/kg/d into the stomach, 1 h after last dose on the eighth day, last 5 of 6 min) was 53.27 ± 20.02 s, the “Effect on accumulative time of non-movement, tail-hanging (in words)” value (ICR mice; high, middle and low doses of Embodiment 5, Paroxetine) was “obviously decrease the accumulative time of non-movement” and the “Horizontal movement (cross-grid number)” value [1] was 55.36 ± 25.96. The “Vertical movement (standing number)” value [1] was 14.36 ± 5.55 and the Sucrose-intake volume [2] was 26.29 ± 4.87 g.
